# Measured values published in the METLIN SMRT retention time set (Domingo-Almenara et al. 2019).
# Experiment: gradient 5% acetonitrile 3 min, to 50% in 2 min, to 85% in 15 min, held 3 min, 100 µL/min
# Conditions: column: Zorbax Extend-C18 2.1 x 50 mm; eluents: water / acetonitrile, 0.1% formic acid
# In short: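 Data were gathered over 3 months by HPLC coupled to a quadrupole time-of-flight mass spectrometer, operated in positive and negative ionization mode. Mixtures of ~100 pure standards ran on a Zorbax Extend-C18 column (2.1 × 50 mm, 1.8 μm) at 100 μL/min, with water and acetonitrile each containing 0.1% formic acid and dead and dwell volumes of 40 μL and 900 μL. Retention time was read from adduct peaks picked by computer and checked manually.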
row,Compound,RP-LC retention time [s]
1,O=C(CCn1cnc2cc(-c3noc(COc4ccc(Cl)cc4)n3)ccc21)N1CCCC1,786
2,Cn1nc(C(=O)Nc2ccccc2)c2c1CCN(C(=O)Nc1ccccc1Br)C2,903
3,CC(C)C1c2nccn2CCCN1C(=O)c1n[nH]c(=O)c2ccccc12 (centres undefined),569
4,Cc1ccc(-c2cc3c(=O)n(Cc4noc(CN5CCCCC5C)n4)ccn3n2)cc1C (centres undefined),730
5,CCCN1C(=O)C(CC(=O)N2CCN(C)CC2)Sc2ncccc21 (centres undefined),576
6,Cn1cccc(C(=O)Nc2nc3c(s2)CN(S(=O)(=O)C2CC2)CC3)c1=O,645
7,CCOC(=O)c1c(C)n(C)c2cc(Br)c(OC)cc12,1090
8,Cn1c(N2CCCC(C(=O)Nc3ccc(F)cc3F)C2)cc(=O)n(C)c1=O (centres undefined),700
9,O=C(CC1CCN(C(=O)Nc2cccc(Cl)c2)CC1)N1CCN(c2ccccn2)CC1,630
10,CC1CCN(c2nc(C(=O)N(C)c3ccccc3)nc3c2cnn3C)CC1,864
11,COc1cccc(CN2CN(c3ccc(C)cc3)c3ncccc3S2(=O)=O)c1,1110
12,COc1ccc2[nH]c(=O)c(CCC(=O)NCc3cccnc3)cc2c1,571
13,O=c1c2cc(-c3cccs3)nn2cnn1Cc1nc(-c2ccccc2)no1,1050
14,CC(=O)Nc1ccc(-n2cnc(C(=O)N3CCN(c4ccc(F)cc4)CC3)c2)nc1,688
15,CCOc1ccc(C(=O)NC2CCN(c3cc(-c4ccc(OC)cc4)[nH]n3)C2)cc1 (centres undefined),725
16,O=C(OCc1nc2ccccc2s1)c1ccc2c(c1)OCCO2,953
17,CCOC(=O)c1nc(NCC2CCN(Cc3cccc(F)c3)CC2)c2ccccc2n1,605
18,CC(C)CCN1CCC(N2CCN(S(=O)(=O)Cc3ccc(F)cc3Cl)CC2)C1=O (centres undefined),682
19,COc1cccc(C2Cn3nnc(-c4nc(-c5ccccc5F)no4)c3CO2)c1 (centres undefined),1100
20,Cc1c(CC(=O)N2CCC(C(N)=O)CC2)c(=O)oc2c(C)c3occ(C(C)(C)C)c3cc12,821
21,O=C(CSc1ncnc2c1[nH]c1ccc(F)cc12)N1CCc2ccccc2C1,891
22,Cc1ccc(-c2coc(-c3ccc(NC(=O)NCc4cccc(F)c4)cc3)n2)c(C)c1,1200
23,O=C(C1CCN(c2ncnc3c2oc2ccccc23)CC1)N1CCN(c2ccccc2)CC1,795

row,Compound,RP-LC retention time [s]
1,CCCCOc1ccc(-c2nc(C3CC(=O)N(c4ccc(Cl)cc4)C3)no2)cc1 (centres undefined),1350
2,Cn1c(=O)sc2cc(S(=O)(=O)N3CCC(C(=O)Nc4ccccc4)CC3)ccc21,835
3,O=C1CCc2cc(NS(=O)(=O)Cc3cccc(Cl)c3)ccc2N1,938
4,CCOc1ccc(S(=O)(=O)N2CCC(C(=O)NC3CCCC3)CC2)cc1,632
5,Cn1c(=O)sc2cc(S(=O)(=O)N3CCC(C(=O)N4CCCCC4)CC3)ccc21,764
6,COc1ccc(-c2cc3n(n2)CCCN(S(=O)(=O)CCc2ccccc2)C3)cc1,983
7,Cc1ccc(C)c(Sc2cc(N3CCC(C(=O)N4CCC(C(N)=O)CC4)CC3)ncn2)c1,652
8,O=C(CCC1CCCC1)Nc1nc(-c2ccc(F)cc2)cs1,1210
9,Cc1ccc2c(c1)C(=O)NC1(CCN(C(=O)NCCc3ccccc3)CC1)N2C,755
10,O=S(=O)(c1ccc(F)c(F)c1)N1CCc2nc(-c3ccccc3)ncc2C1,1090
11,Cc1cccc(-c2noc(C3CCCN3C(=O)Nc3ccc(F)cc3)n2)c1 (centres undefined),1010
12,CCn1c(C(=O)NCCCc2ccccc2)cc2c(-c3cccs3)nn(-c3ccccc3)c21,1280
13,CN(C)C(=O)c1ccc2c(c1)nc(CN(C)C(=O)Nc1ccc(Br)cc1F)n2C,637
14,O=C(C1CC1)N1CCC(F)(C(=O)NCC2CC2)CC1,631
15,Cc1ccc(NC(=O)CN2C(=O)CCCc3cc(S(=O)(=O)N4CCCC4)ccc32)cc1C,824
16,CC(C)(C)c1csc(-c2csc(S(=O)(=O)NC3CCCCCC3)c2)n1,1010
17,COc1ccccc1NC(=O)Cn1ncc2c(c1=O)N(CC1CC1)C(=O)CS2,794
18,O=C(Cn1ncc2c(c1=O)N(CC1CC1)C(=O)CS2)Nc1ccccc1C(F)(F)F,831
19,CCOc1ccc(NC(=O)NCCc2cn(CC)c3ncccc23)cc1,704
20,CCOC(=O)c1c(C)oc2nc(C)nc(NCCc3ccc(OCC)cc3)c12,1270
21,COc1ccc(NC(=O)C2(C)CCCCC(=O)N2)cc1 (centres undefined),640
22,CCOC(=O)N1CCN(C(=O)C2CCC(CNS(=O)(=O)CC)CC2)CC1 (centres undefined),631
23,Cc1noc(C)c1CCC(=O)N1CC(c2nc3ccccc3[nH]2)C1,552

row,Compound,RP-LC retention time [s]
1,O=S(=O)(NCc1cccs1)c1cc(-c2nnc(-c3ccccc3)o2)ccc1F,1070
2,Cc1ccc2[nH]cc(CCNC(=O)c3cc(-c4ccccn4)nc4ccccc34)c2c1,902
3,CCC(=O)Nc1cc2c(cc1Sc1ccc(OC)cc1)n(C)c(=O)n2C,974
4,Cc1ccc(C)c(NC(=O)c2csc(-c3cn(C)c4ncccc34)n2)c1,1110
5,CCOc1ccc(CNC(=O)c2cn3cc(Cl)ccc3n2)cc1,863
6,Cc1noc(CNC(=O)CN(C)c2nc3c(C)ccc(C)c3s2)n1,772
7,Cc1nn(C(C)C(=O)NCCN(C)Cc2ccccc2)c(=O)c2c(C)n(-c3ccccc3)nc12 (centres undefined),686
8,CCOc1ccc(-c2nc(-c3ccc4oc(C)nc4c3)no2)cc1OCC,1170
9,COc1cc(NC(=O)NC2CCN(c3cc(C)cc(C)c3)C2=O)cc(OC)c1 (centres undefined),818
10,CCCN1C(=O)COc2ccc(-c3noc(Cc4cccc(OC)c4)n3)cc21,1080
11,O=C(Cc1ccsc1)N1CCC(Nc2ncnc3c2CCC3)C1 (centres undefined),588
12,O=C(CCCCCCNC(=O)c1cnc(N(c2ccccc2)c2ccccc2)nc1)NO,771
13,Cc1ccc(NC(=O)N2CCCC(C)(C(=O)NCc3ccccc3C)C2)cc1C (centres undefined),978
14,Cc1cc(C)cc(C(=O)N2CCN(c3nc(C)cc(N4CCCCC4)n3)CC2)c1,765
15,Cc1ccnc(N2CCCC(C(=O)NCCCN3CCCCCC3)C2)n1 (centres undefined),586
16,COc1cccc(-c2cc(=O)n3c4ccccc4n(CC(=O)NC(C)C)c3n2)c1,858
17,CC(C)n1nnc2cc(S(=O)(=O)N3CCCC(C(=O)N(C)Cc4ccccc4)C3)ccc21 (centres undefined),940
18,CCN(CC)C(=O)c1ccc2c(c1)nnn2CCNC(=O)Nc1ccc(Br)c(C)c1,785
19,COc1ccc(-c2nc(-c3cccc(-c4ccnn4C)c3)no2)cc1,1120
20,CCN(Cc1ccccc1)C(=O)Cn1cnc(C)cc1=O,624
21,CC(C)c1ccc(-n2nc(N3CCN(C(=O)c4ccc5c(c4)OCO5)CC3)ccc2=O)cc1,914
22,COc1ccc(Cl)c2c(=O)c3c([nH]c12)CCN(CC(=O)Nc1cccc(C#N)c1)C3,801
23,Cc1cc(C)cc(NC(=O)c2cc(C)n3nccc3n2)c1,1020

row,Compound,RP-LC retention time [s]
1,CSc1ncn(-c2nc(NC(C)C)nc(N(C)C)n2)n1,874
2,Cn1c(CCNC(=O)c2cccc(C#N)c2)nc2cccnc21,601
3,CNC(=O)c1c(NC(=O)c2cccc(Cl)c2)sc2c1CCC2,1160
4,O=C(O)c1ccc2cc(-c3ccc(O)c(C4C5CC6CC(C5)CC4C6)c3)ccc2c1 (centres undefined),1240
5,CCCNC(=O)C1CCN(c2nc3ccsc3c(=O)n2Cc2ccccc2)CC1,756
6,COc1ccc(OC)c(NC(=O)NC(C)C(=O)N2CCc3ccccc32)c1 (centres undefined),859
7,COc1ccc(-c2nc(C)cc(C)c2CNS(=O)(=O)c2cccc(C)c2)cc1,668
8,COc1ccc(C)cc1NC(=O)Cn1nc2c(Oc3ccccc3C)nccn2c1=O,896
9,O=C(c1nnc(-c2ccc(S(=O)(=O)N3CCOCC3)cc2)o1)N1CCCCCC1,862
10,CCCS(=O)(=O)N1CC(c2nc(CCOc3cccc(C)c3)no2)C1,995
11,COc1ccc(-c2nc(-c3cn(Cc4cccc(F)c4)nn3)no2)cc1OC,901
12,Cc1ccc(NC(=O)Cn2nc(N3CCCCCC3)c3ccccc3c2=O)cc1F,1170
13,ClCC(CNCc1ccccc1)c1ccccc1 (centres undefined),723
14,CC(C)N1CCN(C(=O)c2csc(-c3ccc(N4CCCC4)nc3)n2)CC1,559
15,Cc1nc(-c2ccccc2)cc2nn(CC(=O)N3CCc4ccccc43)c(=O)n12,966
16,CC(C)NC(=O)N1CC(c2nc(-c3cccnc3)no2)C2(CCOCC2)C1 (centres undefined),635
17,CCC1CN(C(=O)N2CCC(C(=O)NCCN3CCCC3)CC2)c2ccccc2O1 (centres undefined),620
18,Cc1ccc(-c2cc(N3CCN(C(=O)c4ccccc4Br)CC3)ncn2)cc1,696
19,O=C(CSc1ccc(-c2cccnc2)nn1)NCC1CCCO1 (centres undefined),548
20,COc1ccc(NC(=O)c2cn3c(n2)CSCC3)c(C)c1,674
